Molecular target: T1, CYP2B6 (Homo sapiens, UniProt P20813)
T1 construct: co-incubation ticagrelor-O-Glu with selective P450 probe substrates in HLM; tissue XenoTech LLC; host or cells: pooled human liver microsomes
T1 sequence (P20813 1-491): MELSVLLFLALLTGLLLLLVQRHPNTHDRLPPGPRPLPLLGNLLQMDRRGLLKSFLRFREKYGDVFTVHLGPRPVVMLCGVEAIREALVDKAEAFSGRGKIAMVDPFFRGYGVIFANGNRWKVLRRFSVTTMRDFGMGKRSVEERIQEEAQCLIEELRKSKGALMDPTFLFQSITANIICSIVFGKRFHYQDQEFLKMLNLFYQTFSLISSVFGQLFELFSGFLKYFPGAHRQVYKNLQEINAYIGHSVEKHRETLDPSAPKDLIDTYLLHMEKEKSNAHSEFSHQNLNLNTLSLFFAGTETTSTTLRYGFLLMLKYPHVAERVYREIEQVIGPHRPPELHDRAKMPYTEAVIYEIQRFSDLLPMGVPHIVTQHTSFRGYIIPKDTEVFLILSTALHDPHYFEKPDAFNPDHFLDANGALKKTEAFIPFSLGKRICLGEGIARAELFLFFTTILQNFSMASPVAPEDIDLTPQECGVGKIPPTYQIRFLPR
Assay: CYP2B6 inhibition in HLM (bupropion hydroxylase)
Format: in vitro ADME
Experimental: The potential inhibitory effects of ticagrelor-O-Glu on the activities of major CYPs, i.e., CYP2B6, CYP2C8, CYP2C9, CYP2C19, CYP2D6, and CYP3A4, were evaluated by co-incubation ticagrelor-O-Glu with selective P450 probe substrates in HLM. Each incubation mixture containing 0.2 mg/ml HLM, ticagrelor-O-Glu and respective substrate (the final substrate concentrations are close to or less than the Km values: 150 μM bupropion, 1.26 μM amodiaquine, 10 μM diclofenac, 20 μM mephenytoin, 20 μM dextromethorphan and 80 μM testosterone (in house data)) in potassium phosphate buffer (100 mM, pH 7.4) was pre-incubated at 37°C for 5 min. Then, NADPH (10 mM) was added to initiate the reaction. The final volume of the incubation mixture was 100 μl. After incubation at 37°C for specific time points, the reaction was terminated by the addition of 200 μl of ice-cold methanol solution with internal standards (diazepam and furafylline). Preliminary screening experiments with selected concentrations of ticagrelor-O-Glu (0, 1, 10, or 100 μM of the final concentration) were carried out to determine the inhibition potency. For those that produced approximately 50% inhibition of CYPs enzyme activities at a ticagrelor-O-Glu concentration between 1 and 100 μM, IC50 was further determined with various concentrations of ticagrelor-O-Glu (0, 1, 5, 10, 20, 50, and 100 μM). All the experiments were performed in triplicates. The supernatant was obtained after centrifugation at 14,000 rpm for 10 min and injected into LC-MS/MS for the analysis of the respective metabolites. The formation of respective metabolites was determined to reflect P450 isoform activities. The metabolites quantified for CYP2B6, CYP2C8, CYP2C9, CYP2C19, CYP2D6, and CYP3A4 were hydroxy bupropion, N-Desethyl amodiaquine, 4′-hydroxylation diclofenac, S-4-hydroxy mephenytoin, dextrorphan and 6β-hydroxy testosterone, respectively.
The percent inhibition relative to the control was calculated to indicate the UGTs or CYPs inhibition. […]

IC50 (CYP2B6, bupropion hydroxylase, HLM 0.2 mg/ml): 45 µM | inhibition at 10 μM (human, human liver microsomes, pH 7.4, probe bupropion (150 μM), hydroxy bupropion formation, HLM, 10 μM ticagrelor-O-Glu): 19.1% | inhibition at 100 µM (human, human liver microsomes, pH 7.4, probe bupropion (150 μM), hydroxy bupropion formation, HLM, 100 μM ticagrelor-O-Glu): 77.9%
SMILES: CCCSc1nc(N[C@@H]2C[C@H]2c2ccc(F)c(F)c2)c2nnn([C@@H]3C[C@H](OCCO[C@@H]4O[C@H](C(=O)O)[C@@H](O)[C@H](O)[C@H]4O)[C@@H](O)[C@H]3O)c2n1 [Ticagrelor-O-Glu, ticagrelor-O-glucuronide]

Source: paper PMC8552062, “Contributions of UDP-Glucuronosyltransferases to Human Hepatic and Intestinal Metabolism of Ticagrelor and Inhibition of UGTs and Cytochrome P450 Enzymes by Ticagrelor and its Glucuronidated Metabolite” (Frontiers in Pharmacology, 2021)
